Test results: patent publication US20240132463A1, “SUBSTITUTED N-(2-(2,6-DIOXOPIPERIDIN-3-YL)-1,3-DIOXOISOINDOLIN-5-YL)ARYLSULFONAMIDE ANALOGS AS MODULATORS OF CEREBLON PROTEIN” (ST. JUDE CHILDREN'S RESEARCH HOSPITAL, INC., priority 2020, published 2024)

Biological target: 6×His-CRBN-DDB1 protein (Homo sapiens (Human), UniProt Q96SW2)
Test: CRBN fluorescence polarization assay
Type: binding
Details: cereblon binding, class symbols; read-out: CRBN FP IC50
Protocol: 6×His-CRBN-DDB1 protein (200 nM) and Cy5-O-Len probe (30 nM) were combined in 20 mM HEPES pH 7, 150 mM NaCl, 0.005% Tween-20 assay buffer. […] The plates were incubated in the dark for 1 hour at room temperature and then read on an Envision plate reader (PerkinElmer, Massachusetts, USA).

Chain of 6×His-CRBN-DDB1 protein (Q96SW2 whole entry): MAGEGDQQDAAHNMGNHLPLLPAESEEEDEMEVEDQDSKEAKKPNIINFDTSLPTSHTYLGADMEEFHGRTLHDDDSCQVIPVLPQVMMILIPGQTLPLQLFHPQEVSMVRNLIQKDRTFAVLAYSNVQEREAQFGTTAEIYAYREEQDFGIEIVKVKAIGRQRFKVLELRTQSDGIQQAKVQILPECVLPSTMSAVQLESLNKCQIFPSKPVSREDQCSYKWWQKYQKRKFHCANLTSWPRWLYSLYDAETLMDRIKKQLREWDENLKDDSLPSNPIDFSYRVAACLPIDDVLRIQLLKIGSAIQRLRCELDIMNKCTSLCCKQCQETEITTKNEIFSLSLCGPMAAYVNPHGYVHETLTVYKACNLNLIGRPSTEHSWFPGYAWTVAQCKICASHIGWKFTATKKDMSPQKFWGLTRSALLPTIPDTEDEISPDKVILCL
Chain of 6×His-CRBN-DDB1 protein (Q16531 whole entry partner): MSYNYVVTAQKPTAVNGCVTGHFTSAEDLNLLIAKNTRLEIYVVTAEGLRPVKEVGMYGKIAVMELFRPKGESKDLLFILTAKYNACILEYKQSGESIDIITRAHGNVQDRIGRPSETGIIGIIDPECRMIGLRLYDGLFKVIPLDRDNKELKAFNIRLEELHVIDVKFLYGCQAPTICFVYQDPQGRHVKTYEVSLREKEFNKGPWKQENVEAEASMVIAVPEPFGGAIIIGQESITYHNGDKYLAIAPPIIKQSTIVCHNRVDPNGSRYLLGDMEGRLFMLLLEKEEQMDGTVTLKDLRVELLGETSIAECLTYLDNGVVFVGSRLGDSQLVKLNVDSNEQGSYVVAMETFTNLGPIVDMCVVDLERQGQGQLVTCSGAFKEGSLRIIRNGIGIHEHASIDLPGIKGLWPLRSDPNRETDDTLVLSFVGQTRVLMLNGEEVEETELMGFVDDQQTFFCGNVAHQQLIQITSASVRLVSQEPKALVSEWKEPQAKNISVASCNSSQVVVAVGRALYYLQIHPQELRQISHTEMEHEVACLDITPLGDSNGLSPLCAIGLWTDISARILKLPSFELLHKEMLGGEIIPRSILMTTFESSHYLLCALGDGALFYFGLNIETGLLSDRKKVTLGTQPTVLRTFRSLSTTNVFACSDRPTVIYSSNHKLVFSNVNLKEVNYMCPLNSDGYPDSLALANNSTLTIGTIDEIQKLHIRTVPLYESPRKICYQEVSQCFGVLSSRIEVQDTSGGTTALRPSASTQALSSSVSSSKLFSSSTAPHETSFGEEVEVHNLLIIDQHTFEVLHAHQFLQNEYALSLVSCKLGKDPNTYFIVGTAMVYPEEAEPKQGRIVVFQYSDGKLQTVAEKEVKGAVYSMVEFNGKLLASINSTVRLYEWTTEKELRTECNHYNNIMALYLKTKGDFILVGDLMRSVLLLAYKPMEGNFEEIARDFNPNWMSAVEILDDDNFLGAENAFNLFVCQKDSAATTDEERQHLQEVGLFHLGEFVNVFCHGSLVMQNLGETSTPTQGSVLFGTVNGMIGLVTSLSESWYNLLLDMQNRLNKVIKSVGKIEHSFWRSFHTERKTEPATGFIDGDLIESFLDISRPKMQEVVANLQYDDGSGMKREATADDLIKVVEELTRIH

`COc1ccc(S(=O)(=O)Nc2ccc3c(c2)C(=O)N(C2CCC(=O)NC2=O)C3=O)cc1` (centres unmarked) [Compound 14, N-(2-(2,6-dioxopiperidin-3-yl)-1,3-dioxoisoindolin-5-yl)-4-methoxybenzenesulfonamide] and `N#Cc1ccc(S(=O)(=O)Nc2ccc3c(c2)C(=O)N(C2CCC(=O)NC2=O)C3=O)cc1` (centres unmarked) [Compound 64, 4-cyano-N-(2-(2,6-dioxopiperidin-3-yl)-1,3-dioxoisoindolin-5-yl)benzenesulfonamide] cannot be ordered by IC50: < 1000 nM for the first, < 1000 nM for the second.

`O=C1CCC(N2Cc3ccc(NS(=O)(=O)c4ccc(C(F)(F)F)cc4)cc3C2=O)C(=O)N1` (centres unmarked) [Compound 26, N-(2-(2,6-dioxopiperidin-3-yl)-3-oxoisoindolin-5-yl)-4-(trifluoromethyl)benzenesulfonamide] and `O=C1CCC(N2Cc3ccc(NS(=O)(=O)c4ccc(F)cc4)cc3C2=O)C(=O)N1` (centres unmarked) [Compound 23, N-(2-(2,6-dioxopiperidin-3-yl)-3-oxoisoindolin-5-yl)-4-fluorobenzenesulfonamide] cannot be ordered by IC50: < 1000 nM for the first, < 1000 nM for the second.

First: COc1ccc(S(=O)(=O)Nc2ccc3c(c2)CN(C2CCC(=O)NC2=O)C3=O)cc1 (centres unmarked) [Compound 40, N-(2-(2,6-dioxopiperidin-3-yl)-1-oxoisoindolin-5-yl)-4-methoxybenzenesulfonamide]
Second: COc1ccc(S(=O)(=O)Nc2ccc3c(c2)C(=O)N(C2CCC(=O)NC2=O)C3)cc1 (centres unmarked) [Compound 24, N-(2-(2,6-dioxopiperidin-3-yl)-3-oxoisoindolin-5-yl)-4-methoxybenzenesulfonamide]
The IC50 of the first is lower: < 1000 nM for the first, 1000 to 10000 nM for the second.

Compared with `O=C1CCC(N2C(=O)c3ccc(NS(=O)(=O)c4ccc(C5CCCCC5)cc4)cc3C2=O)C(=O)N1` (centres unmarked) [Compound 80, 4-cyclohexyl-N-(2-(2,6-dioxopiperidin-3-yl)-1,3-dioxoisoindolin-5-yl)benzenesulfonamide], `CC(C)(C)c1ccc(S(=O)(=O)Nc2ccc3c(c2)C(=O)N(C2CCC(=O)NC2=O)C3=O)cc1` (centres unmarked) [Compound 3, 4-(tert-butyl)-N-(2-(2,6-dioxopiperidin-3-yl)-1,3-dioxoisoindolin-5-yl)benzenesulfonamide] is lower in IC50: 1000 to 10000 nM for the first, < 1000 nM for the second. The second is the more potent here.

`Cc1c(Cl)cccc1S(=O)(=O)Nc1ccc2c(c1)C(=O)N(C1CCC(=O)NC1=O)C2` (centres unmarked) [Compound 36, 3-chloro-N-(2-(2,6-dioxopiperidin-3-yl)-3-oxoisoindolin-5-yl)-2-methylbenzenesulfonamide] and `Cc1c(Cl)cccc1S(=O)(=O)Nc1ccc2c(c1)CN(C1CCC(=O)NC1=O)C2=O` (centres unmarked) [Compound 55, 3-chloro-N-(2-(2,6-dioxopiperidin-3-yl)-1-oxoisoindolin-5-yl)-2-methylbenzenesulfonamide] cannot be ordered by IC50: < 1000 nM for the first, < 1000 nM for the second.

`Cc1ccc(F)c(S(=O)(=O)Nc2ccc3c(c2)C(=O)N(C2CCC(=O)NC2=O)C3)c1` (centres unmarked) [Compound 34, N-(2-(2,6-dioxopiperidin-3-yl)-3-oxoisoindolin-5-yl)-2-fluoro-5-methylbenzenesulfonamide] and `Cc1ccc(F)c(S(=O)(=O)Nc2ccc3c(c2)CN(C2CCC(=O)NC2=O)C3=O)c1` (centres unmarked) [Compound 53] cannot be ordered by IC50: < 1000 nM for the first, < 1000 nM for the second.

`O=C1CCC(N2Cc3ccc(NS(=O)(=O)c4cccc(OC(F)(F)F)c4)cc3C2=O)C(=O)N1` (centres unmarked) [Compound 27, N-(2-(2,6-dioxopiperidin-3-yl)-3-oxoisoindolin-5-yl)-3-(trifluoromethoxy)benzenesulfonamide] and `O=C1CCC(N2Cc3cc(NS(=O)(=O)c4cccc(OC(F)(F)F)c4)ccc3C2=O)C(=O)N1` (centres unmarked) [Compound 43, N-(2-(2,6-dioxopiperidin-3-yl)-1-oxoisoindolin-5-yl)-3-(trifluoromethoxy)benzenesulfonamide] cannot be ordered by IC50: < 1000 nM for the first, < 1000 nM for the second.

`Cc1ccc(S(=O)(=O)Nc2ccc3c(c2)C(=O)N(C2CCC(=O)NC2=O)C3)cc1` (centres unmarked) [Compound 25, N-(2-(2,6-dioxopiperidin-3-yl)-3-oxoisoindolin-5-yl)-4-methylbenzenesulfonamide] and `CC(C)c1ccc(S(=O)(=O)Nc2ccc3c(c2)C(=O)N(C2CCC(=O)NC2=O)C3)cc1` (centres unmarked) [Compound 30, N-(2-(2,6-dioxopiperidin-3-yl)-3-oxoisoindolin-5-yl)-4-isopropylbenzenesulfonamide] cannot be ordered by IC50: < 1000 nM for the first, < 1000 nM for the second.

`O=C1CCC(N2Cc3cc(NS(=O)(=O)c4cccc(C(F)(F)F)c4)ccc3C2=O)C(=O)N1` (centres unmarked) [Compound 50, N-(2-(2,6-dioxopiperidin-3-yl)-1-oxoisoindolin-5-yl)-3-(trifluoromethyl)benzenesulfonamide] and `Cc1cccc(S(=O)(=O)Nc2ccc3c(c2)CN(C2CCC(=O)NC2=O)C3=O)c1` (centres unmarked) [Compound 45, N-(2-(2,6-dioxopiperidin-3-yl)-1-oxoisoindolin-5-yl)-3-methylbenzenesulfonamide] cannot be ordered by IC50: < 1000 nM for the first, < 1000 nM for the second.

`Cc1ccccc1S(=O)(=O)Nc1ccc2c(c1)CN(C1CCC(=O)NC1=O)C2=O` (centres unmarked) [Compound 54, N-(2-(2,6-dioxopiperidin-3-yl)-1-oxoisoindolin-5-yl)-2-methylbenzenesulfonamide] and `Cc1ccccc1S(=O)(=O)Nc1ccc2c(c1)C(=O)N(C1CCC(=O)NC1=O)C2` (centres unmarked) [Compound 35, N-(2-(2,6-dioxopiperidin-3-yl)-3-oxoisoindolin-5-yl)-2-methylbenzenesulfonamide] cannot be ordered by IC50: < 1000 nM for the first, < 1000 nM for the second.

`Cc1ccc(S(=O)(=O)Nc2ccc3c(c2)C(=O)N(C2CCC(=O)NC2=O)C3=O)cc1C` (centres unmarked) [Compound 93, N-(2-(2,6-dioxopiperidin-3-yl)-1,3-dioxoisoindolin-5-yl)-3,4-dimethylbenzenesulfonamide] and `Cc1cccc(S(=O)(=O)Nc2ccc3c(c2)C(=O)N(C2CCC(=O)NC2=O)C3=O)c1` (centres unmarked) [Compound 19, N-(2-(2,6-dioxopiperidin-3-yl)-1,3-dioxoisoindolin-5-yl)-3-methylbenzenesulfonamide] cannot be ordered by IC50: < 1000 nM for the first, < 1000 nM for the second.

`O=C1CCC(N2C(=O)c3ccc(NS(=O)(=O)c4cccc(Cl)c4Cl)cc3C2=O)C(=O)N1` (centres unmarked) [Compound 88, 2,3-dichloro-N-(2-(2,6-dioxopiperidin-3-yl)-1,3-dioxoisoindolin-5-yl)benzenesulfonamide] and `O=C1CCC(N2C(=O)c3ccc(NS(=O)(=O)c4ccccc4Br)cc3C2=O)C(=O)N1` (centres unmarked) [Compound 65, 2-bromo-N-(2-(2,6-dioxopiperidin-3-yl)-1,3-dioxoisoindolin-5-yl)benzenesulfonamide] cannot be ordered by IC50: < 1000 nM for the first, < 1000 nM for the second.

First: O=C1CCC(N2C(=O)c3ccc(NS(=O)(=O)c4ccc(F)c(F)c4)cc3C2=O)C(=O)N1 (centres unmarked) [Compound 11, N-(2-(2,6-dioxopiperidin-3-yl)-1,3-dioxoisoindolin-5-yl)-3,4-difluorobenzenesulfonamide]
Second: O=C1CCC(N2C(=O)c3ccc(NS(=O)(=O)c4ccc(F)cc4F)cc3C2=O)C(=O)N1 (centres unmarked) [Compound 74, N-(2-(2,6-dioxopiperidin-3-yl)-1,3-dioxoisoindolin-5-yl)-2,4-difluorobenzenefylfonamide]
The IC50 of the first is lower: < 1000 nM for the first, 1000 to 10000 nM for the second.

Compared with `O=C1CCC(N2Cc3cc(NS(=O)(=O)c4ccc(F)c(Cl)c4)ccc3C2=O)C(=O)N1` (centres unmarked) [Compound 49, 3-chloro-N-(2-(2,6-dioxopiperidin-3-yl)-1-oxoisoindolin-5-yl)-4-fluorobenzenesulfonamide], `O=C1CCC(N2Cc3ccc(NS(=O)(=O)c4ccc(F)c(Cl)c4)cc3C2=O)C(=O)N1` (centres unmarked) [Compound 31, 3-chloro-N-(2-(2,6-dioxopiperidin-3-yl)-3-oxoisoindolin-5-yl)-4-fluorobenzenesulfonamide] is higher in IC50: < 1000 nM for the first, 1000 to 10000 nM for the second.

`O=C1CCC(N2C(=O)c3ccc(NS(=O)(=O)c4ccc5c(c4)OCCO5)cc3C2=O)C(=O)N1` (centres unmarked) [Compound 59, N-(2-(2,6-dioxopiperidin-3-yl)-1,3-dioxoisoindolin-5-yl)-2,3-dihydrobenzo[b][1,4]dioxine-6-sulfonamide] and `O=C1CCC(N2C(=O)c3ccc(NS(=O)(=O)c4cc(Cl)cc(Cl)c4)cc3C2=O)C(=O)N1` (centres unmarked) [Compound 6, 3,5-dichloro-N-(2-(2,6-dioxopiperidin-3-yl)-1,3-dioxoisoindolin-5-yl)benzenesulfonamide] cannot be ordered by IC50: < 1000 nM for the first, < 1000 nM for the second.

First: O=C1CCC(N2C(=O)c3ccc(NS(=O)(=O)c4cccnc4)cc3C2=O)C(=O)N1 (centres unmarked) [Compound 85, N-(2-(2,6-dioxopiperidin-3-yl)-1,3-dioxoisoindolin-5-yl)pyridine-3-sulfonamide]
Second: CC(=O)Nc1ccc(S(=O)(=O)Nc2ccc3c(c2)C(=O)N(C2CCC(=O)NC2=O)C3=O)cc1 (centres unmarked) [Compound 13, N-(4-(N-(2-(2,6-dioxopiperidin-3-yl)-1,3-dioxoisoindolin-5-yl)sulfamoyl)phenyl)acetamide]
The IC50 of the first is higher: 1000 to 10000 nM for the first, < 1000 nM for the second. The second is the more potent here.

First: O=C1CCC(N2C(=O)c3ccc(NS(=O)(=O)c4ccc(-c5ccccc5)cc4)cc3C2=O)C(=O)N1 (centres unmarked) [Compound 62, N-(2-(2,6-dioxopiperidin-3-yl)-1,3-dioxoisoindolin-5-yl)(1,1′-biphenyl]-4-sulfonamide]
Second: CCOc1ccccc1S(=O)(=O)Nc1ccc2c(c1)C(=O)N(C1CCC(=O)NC1=O)C2=O (centres unmarked) [Compound 79, N-(2-(2,6-dioxopiperidin-3-yl)-1,3-dioxoisoindolin-5-yl)-2-ethoxybenzenesulfonamide]
The IC50 of the first is lower: < 1000 nM for the first, 1000 to 10000 nM for the second.

`O=C1CCC(N2Cc3cc(NS(=O)(=O)c4ccccc4OC(F)(F)F)ccc3C2=O)C(=O)N1` (centres unmarked) [Compound 56, N-(2-(2,6-dioxopiperidin-3-yl)-1-oxoisoindolin-5-yl)-2-(trifluoromethoxy)benzenesulfonamide] and `Cc1ccc(S(=O)(=O)Nc2ccc3c(c2)C(=O)N(C2CCC(=O)NC2=O)C3)cc1Cl` (centres unmarked) [Compound 33, 3-chloro-N-(2-(2,6-dioxopiperidin-3-yl)-3-oxoisoindolin-5-yl)-4-methylbenzenesulfonamide] cannot be ordered by IC50: < 1000 nM for the first, < 1000 nM for the second.

`O=C1CCC(N2C(=O)c3ccc(NS(=O)(=O)c4cc(F)c(Cl)cc4F)cc3C2=O)C(=O)N1` (centres unmarked) [Compound 66, 4-chloro-N-(2-(2,6-dioxopiperidin-3-yl)-1,3-dioxoisoindolin-5-yl)-2,5-difluorobenzenesulfonamide] and `Cc1cc(S(=O)(=O)Nc2ccc3c(c2)C(=O)N(C2CCC(=O)NC2=O)C3=O)c(C)o1` (centres unmarked) [Compound 84, N-(2-(2,6-dioxopiperidin-3-yl)-1,3-dioxoisoindolin-5-yl)-2,5-dimethylfuran-3-sulfonamide] cannot be ordered by IC50: < 1000 nM for the first, < 1000 nM for the second.
